Assay results reported in PMC8213057, “Targeting ALK2: An Open Science Approach to Developing Therapeutics for the Treatment of Diffuse Intrinsic Pontine Glioma” (Journal of Medicinal Chemistry, 2020).

What was measured:
IRAK1 = IRAK1 (Homo sapiens, UniProt P51617); test: biochemical; conditions: read-out: % enzyme activity, 1 μM; Run 1, Run 2
IRR/INSRR = IRR/INSRR (Homo sapiens, UniProt P14616); test: biochemical; conditions: read-out: % enzyme activity, 1 μM; Run 1, Run 2
P38a/MAPK14 = P38a/MAPK14 (Homo sapiens, UniProt Q16539); test: biochemical; conditions: read-out: % enzyme activity, 1 μM; Run 1, Run 2
Sequence of P38a/MAPK14 (Q16539 whole entry): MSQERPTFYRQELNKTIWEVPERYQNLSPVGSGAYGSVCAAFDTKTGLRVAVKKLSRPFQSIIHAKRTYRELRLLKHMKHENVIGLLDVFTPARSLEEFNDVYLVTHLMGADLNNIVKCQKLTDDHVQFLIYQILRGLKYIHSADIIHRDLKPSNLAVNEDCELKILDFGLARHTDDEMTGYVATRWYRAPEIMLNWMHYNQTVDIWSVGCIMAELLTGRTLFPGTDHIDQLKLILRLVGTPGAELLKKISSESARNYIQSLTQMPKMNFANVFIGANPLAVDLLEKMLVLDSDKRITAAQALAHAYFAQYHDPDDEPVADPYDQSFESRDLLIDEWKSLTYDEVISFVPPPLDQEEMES

FGR = FGR (Homo sapiens, UniProt P09769); test: biochemical; conditions: read-out: % enzyme activity, 1 μM; Run 1, Run 2
Sequence of FGR (P09769 whole entry): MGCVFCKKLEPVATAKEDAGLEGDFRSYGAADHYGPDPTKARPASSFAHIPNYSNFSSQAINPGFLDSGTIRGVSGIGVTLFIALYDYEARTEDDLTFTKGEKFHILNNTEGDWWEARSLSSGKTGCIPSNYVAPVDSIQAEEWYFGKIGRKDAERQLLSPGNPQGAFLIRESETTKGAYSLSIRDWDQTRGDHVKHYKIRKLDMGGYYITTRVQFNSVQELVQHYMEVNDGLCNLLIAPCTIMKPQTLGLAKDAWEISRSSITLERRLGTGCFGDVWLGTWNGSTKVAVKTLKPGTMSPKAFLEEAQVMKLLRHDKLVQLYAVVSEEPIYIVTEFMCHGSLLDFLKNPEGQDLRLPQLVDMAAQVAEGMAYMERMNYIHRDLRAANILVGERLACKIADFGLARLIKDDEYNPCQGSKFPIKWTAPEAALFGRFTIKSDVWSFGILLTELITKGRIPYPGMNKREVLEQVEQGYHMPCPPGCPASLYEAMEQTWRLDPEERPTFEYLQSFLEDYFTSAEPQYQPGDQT

MARK3 = MARK3 (Homo sapiens, UniProt P27448); test: biochemical; conditions: read-out: % enzyme activity, 1 μM; Run 1, Run 2
Sequence of MARK3 (P27448 whole entry): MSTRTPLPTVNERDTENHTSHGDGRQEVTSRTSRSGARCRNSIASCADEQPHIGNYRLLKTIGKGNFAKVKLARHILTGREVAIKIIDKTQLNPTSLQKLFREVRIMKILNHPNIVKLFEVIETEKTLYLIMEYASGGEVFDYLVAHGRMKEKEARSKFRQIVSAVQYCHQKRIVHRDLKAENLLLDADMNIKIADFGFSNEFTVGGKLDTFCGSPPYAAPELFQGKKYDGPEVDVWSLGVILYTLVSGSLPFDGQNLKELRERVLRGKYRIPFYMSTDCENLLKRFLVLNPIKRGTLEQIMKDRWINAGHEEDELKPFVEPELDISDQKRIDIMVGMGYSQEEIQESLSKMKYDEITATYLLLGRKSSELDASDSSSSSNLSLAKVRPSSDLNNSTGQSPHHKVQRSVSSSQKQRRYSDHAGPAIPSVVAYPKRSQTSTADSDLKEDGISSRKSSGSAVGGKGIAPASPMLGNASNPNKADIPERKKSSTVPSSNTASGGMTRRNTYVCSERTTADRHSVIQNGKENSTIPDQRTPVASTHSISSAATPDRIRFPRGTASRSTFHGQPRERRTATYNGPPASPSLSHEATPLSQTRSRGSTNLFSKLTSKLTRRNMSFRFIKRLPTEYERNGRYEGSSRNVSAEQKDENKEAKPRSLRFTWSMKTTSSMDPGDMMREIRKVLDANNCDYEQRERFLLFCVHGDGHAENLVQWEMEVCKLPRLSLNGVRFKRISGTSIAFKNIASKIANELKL

PAK1 = PAK1 (Homo sapiens, UniProt Q13153); conditions: 1 μM; Run 1, Run 2
Sequence of PAK1 (Q13153 whole entry): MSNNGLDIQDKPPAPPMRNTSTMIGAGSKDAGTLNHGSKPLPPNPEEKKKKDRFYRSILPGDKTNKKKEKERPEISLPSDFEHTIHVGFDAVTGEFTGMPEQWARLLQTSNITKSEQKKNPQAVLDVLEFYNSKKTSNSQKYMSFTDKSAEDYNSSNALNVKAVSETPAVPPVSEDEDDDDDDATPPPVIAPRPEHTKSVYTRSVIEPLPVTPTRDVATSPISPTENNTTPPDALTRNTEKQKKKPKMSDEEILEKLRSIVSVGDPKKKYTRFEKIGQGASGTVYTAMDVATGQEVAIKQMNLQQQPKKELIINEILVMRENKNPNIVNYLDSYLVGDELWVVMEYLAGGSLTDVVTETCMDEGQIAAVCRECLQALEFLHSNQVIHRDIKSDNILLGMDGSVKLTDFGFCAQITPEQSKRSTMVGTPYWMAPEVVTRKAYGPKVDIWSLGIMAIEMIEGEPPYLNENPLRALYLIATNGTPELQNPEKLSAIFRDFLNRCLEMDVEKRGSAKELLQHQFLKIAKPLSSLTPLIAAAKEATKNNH

NEK8 = target: T1, NEK8 (Homo sapiens, UniProt Q86SG6); conditions: 1 μM; Run 1, Run 2
T1 sequence (Q86SG6 1-692): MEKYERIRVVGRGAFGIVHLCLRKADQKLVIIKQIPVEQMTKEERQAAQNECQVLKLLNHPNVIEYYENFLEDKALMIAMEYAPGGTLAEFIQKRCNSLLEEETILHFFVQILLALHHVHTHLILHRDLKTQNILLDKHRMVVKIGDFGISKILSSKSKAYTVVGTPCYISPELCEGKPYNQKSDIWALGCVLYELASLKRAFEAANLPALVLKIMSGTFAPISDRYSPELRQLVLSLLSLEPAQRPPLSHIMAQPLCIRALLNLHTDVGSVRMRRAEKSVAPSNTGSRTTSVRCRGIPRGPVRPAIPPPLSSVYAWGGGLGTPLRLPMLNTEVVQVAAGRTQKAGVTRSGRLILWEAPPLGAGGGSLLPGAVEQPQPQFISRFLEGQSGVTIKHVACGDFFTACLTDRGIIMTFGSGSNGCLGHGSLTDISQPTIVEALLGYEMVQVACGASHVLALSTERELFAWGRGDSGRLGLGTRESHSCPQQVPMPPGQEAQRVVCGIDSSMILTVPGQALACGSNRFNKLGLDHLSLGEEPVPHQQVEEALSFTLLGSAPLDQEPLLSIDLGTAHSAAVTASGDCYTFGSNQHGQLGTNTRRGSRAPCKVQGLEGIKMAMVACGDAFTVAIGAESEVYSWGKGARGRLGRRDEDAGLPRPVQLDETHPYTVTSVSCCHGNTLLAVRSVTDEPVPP

SRMS = SRMS (Homo sapiens, UniProt Q9H3Y6); test: biochemical; conditions: read-out: % enzyme activity, 1 μM; Run 1, Run 2
Sequence of SRMS (Q9H3Y6 whole entry): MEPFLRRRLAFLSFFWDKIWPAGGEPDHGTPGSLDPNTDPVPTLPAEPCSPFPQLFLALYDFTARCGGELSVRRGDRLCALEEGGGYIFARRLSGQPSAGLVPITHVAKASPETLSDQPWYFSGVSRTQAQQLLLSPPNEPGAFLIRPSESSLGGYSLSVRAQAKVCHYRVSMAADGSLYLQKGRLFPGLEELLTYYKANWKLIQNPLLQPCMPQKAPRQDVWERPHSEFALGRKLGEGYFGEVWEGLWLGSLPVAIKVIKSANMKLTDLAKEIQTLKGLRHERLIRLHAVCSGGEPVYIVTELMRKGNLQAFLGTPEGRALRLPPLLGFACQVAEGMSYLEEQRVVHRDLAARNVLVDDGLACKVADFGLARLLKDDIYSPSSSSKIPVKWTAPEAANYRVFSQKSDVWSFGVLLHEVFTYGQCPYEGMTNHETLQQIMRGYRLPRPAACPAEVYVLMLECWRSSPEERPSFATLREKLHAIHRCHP

NEK5 = target: T2, NEK5 (Homo sapiens, UniProt Q6P3R8); test: biochemical; conditions: read-out: % enzyme activity, 1 μM; Run 1, Run 2
T2 sequence (Q6P3R8 1-708): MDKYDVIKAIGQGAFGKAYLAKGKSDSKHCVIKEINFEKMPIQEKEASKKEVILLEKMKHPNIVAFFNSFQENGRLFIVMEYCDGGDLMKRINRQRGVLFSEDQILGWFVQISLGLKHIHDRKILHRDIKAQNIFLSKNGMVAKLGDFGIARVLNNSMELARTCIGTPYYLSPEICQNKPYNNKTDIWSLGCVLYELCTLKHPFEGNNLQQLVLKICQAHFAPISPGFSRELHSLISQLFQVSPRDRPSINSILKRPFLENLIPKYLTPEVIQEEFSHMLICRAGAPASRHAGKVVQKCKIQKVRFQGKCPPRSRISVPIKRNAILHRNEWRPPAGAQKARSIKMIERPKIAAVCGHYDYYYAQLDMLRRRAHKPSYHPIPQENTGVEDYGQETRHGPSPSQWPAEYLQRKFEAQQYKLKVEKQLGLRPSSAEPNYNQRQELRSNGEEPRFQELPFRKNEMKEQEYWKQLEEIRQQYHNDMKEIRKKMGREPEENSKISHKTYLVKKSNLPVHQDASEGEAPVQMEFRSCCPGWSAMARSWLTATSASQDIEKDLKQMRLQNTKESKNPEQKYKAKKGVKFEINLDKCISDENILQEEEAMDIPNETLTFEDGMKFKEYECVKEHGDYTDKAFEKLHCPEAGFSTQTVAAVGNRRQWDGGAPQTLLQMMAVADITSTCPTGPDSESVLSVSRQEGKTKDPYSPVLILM

LATS1 = target: T3, LATS1 (Homo sapiens, UniProt O95835); conditions: 1 μM; Run 1, Run 2
T3 sequence (O95835 1-1130): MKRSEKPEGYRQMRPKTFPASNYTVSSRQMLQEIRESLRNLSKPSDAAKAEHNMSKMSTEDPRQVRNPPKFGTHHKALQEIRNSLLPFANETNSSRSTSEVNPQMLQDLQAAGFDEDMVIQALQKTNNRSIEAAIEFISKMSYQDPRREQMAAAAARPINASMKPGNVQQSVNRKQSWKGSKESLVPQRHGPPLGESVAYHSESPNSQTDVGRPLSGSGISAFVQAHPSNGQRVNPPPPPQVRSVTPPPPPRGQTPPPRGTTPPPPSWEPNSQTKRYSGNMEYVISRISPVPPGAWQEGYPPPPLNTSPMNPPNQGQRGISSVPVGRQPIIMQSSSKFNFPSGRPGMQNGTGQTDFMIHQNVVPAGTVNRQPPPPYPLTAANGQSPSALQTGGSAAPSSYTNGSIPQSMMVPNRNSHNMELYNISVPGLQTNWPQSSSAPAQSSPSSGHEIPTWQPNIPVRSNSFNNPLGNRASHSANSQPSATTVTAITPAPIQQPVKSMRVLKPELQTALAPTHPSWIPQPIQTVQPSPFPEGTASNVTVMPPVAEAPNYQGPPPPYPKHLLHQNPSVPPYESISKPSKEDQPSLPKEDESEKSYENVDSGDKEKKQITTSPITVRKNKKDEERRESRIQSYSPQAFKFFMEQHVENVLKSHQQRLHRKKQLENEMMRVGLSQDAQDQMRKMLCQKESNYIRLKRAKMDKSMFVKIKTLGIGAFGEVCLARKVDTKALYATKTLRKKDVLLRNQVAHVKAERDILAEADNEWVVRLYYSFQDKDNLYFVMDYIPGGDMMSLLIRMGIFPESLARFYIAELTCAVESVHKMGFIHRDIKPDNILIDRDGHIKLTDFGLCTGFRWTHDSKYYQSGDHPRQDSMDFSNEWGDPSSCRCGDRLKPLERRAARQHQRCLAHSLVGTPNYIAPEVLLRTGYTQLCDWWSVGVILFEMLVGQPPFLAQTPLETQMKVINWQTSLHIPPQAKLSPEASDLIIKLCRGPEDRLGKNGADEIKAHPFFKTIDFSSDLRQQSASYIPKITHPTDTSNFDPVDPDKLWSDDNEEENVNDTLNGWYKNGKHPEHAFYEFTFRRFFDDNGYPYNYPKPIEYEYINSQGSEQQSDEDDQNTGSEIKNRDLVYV

Sequence of IRAK1 (P51617 whole entry): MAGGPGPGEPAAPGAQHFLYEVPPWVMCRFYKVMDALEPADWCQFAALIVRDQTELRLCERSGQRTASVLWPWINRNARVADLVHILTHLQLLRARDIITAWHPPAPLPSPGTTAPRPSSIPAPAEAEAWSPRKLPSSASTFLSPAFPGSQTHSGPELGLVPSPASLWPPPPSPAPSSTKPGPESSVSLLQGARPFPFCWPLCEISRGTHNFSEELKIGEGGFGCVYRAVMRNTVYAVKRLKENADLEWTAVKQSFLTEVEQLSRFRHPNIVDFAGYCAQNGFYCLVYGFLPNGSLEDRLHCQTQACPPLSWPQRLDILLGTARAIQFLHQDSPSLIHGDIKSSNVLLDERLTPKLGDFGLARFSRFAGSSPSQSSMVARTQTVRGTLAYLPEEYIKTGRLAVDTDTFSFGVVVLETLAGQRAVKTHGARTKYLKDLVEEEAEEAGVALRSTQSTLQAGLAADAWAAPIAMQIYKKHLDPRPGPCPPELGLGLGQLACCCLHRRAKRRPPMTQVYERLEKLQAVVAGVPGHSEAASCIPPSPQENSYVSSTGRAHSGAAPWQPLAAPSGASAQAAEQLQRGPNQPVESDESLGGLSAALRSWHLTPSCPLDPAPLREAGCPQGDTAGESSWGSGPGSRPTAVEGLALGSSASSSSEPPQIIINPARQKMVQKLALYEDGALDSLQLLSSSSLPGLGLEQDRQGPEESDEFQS
Sequence of IRR/INSRR (P14616 27-1297): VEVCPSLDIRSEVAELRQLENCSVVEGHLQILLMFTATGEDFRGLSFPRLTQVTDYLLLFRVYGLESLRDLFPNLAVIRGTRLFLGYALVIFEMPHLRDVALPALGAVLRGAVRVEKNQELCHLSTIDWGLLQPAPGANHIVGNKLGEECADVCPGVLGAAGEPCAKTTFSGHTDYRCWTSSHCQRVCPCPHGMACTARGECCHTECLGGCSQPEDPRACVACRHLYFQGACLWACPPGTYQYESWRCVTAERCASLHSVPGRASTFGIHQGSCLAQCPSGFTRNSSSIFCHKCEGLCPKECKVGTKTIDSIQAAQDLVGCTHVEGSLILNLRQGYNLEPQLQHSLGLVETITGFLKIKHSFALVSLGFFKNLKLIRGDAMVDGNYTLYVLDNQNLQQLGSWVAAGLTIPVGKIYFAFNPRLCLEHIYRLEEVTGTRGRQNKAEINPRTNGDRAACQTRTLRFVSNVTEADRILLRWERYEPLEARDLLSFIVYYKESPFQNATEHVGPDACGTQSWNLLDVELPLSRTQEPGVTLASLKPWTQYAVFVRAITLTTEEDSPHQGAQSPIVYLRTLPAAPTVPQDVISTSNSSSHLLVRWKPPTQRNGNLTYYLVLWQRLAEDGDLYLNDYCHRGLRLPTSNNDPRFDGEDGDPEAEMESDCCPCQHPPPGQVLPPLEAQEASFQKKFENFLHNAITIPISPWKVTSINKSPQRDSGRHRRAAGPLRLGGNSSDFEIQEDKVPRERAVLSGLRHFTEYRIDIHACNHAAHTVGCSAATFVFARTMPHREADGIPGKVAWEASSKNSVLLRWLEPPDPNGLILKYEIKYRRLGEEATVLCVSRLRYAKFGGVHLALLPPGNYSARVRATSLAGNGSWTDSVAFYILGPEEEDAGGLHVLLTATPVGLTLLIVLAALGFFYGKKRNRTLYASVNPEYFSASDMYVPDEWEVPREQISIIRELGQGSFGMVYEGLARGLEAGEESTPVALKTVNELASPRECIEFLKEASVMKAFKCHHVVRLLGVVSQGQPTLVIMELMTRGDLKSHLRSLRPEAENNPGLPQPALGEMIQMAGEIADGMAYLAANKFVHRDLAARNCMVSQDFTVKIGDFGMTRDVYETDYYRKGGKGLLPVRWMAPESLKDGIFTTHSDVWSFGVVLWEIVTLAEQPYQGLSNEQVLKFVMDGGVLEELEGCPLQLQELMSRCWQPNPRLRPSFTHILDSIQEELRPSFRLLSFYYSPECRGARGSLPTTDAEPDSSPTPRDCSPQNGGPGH

| SMILES | remaining activity at 1 µM (IRAK1) [%] | remaining activity at 1 µM (IRR/INSRR) [%] | remaining activity at 1 µM (P38a/MAPK14) [%] | remaining activity at 1 µM (FGR) [%] | remaining activity at 1 µM (MARK3) [%] | % enzyme activity (PAK1) [%] | % enzyme activity (NEK8) [%] | remaining activity at 1 µM (SRMS) [%] | remaining activity at 1 µM (NEK5) [%] | % enzyme activity (LATS1) [%] |
| --- | --- | --- | --- | --- | --- | --- | --- | --- | --- | --- |
| COc1cc(-c2cncc(-c3ccc(N4CCN(C)CC4)cc3)c2C)cc(F)c1C(N)=O [Compound 26a, 2-Fluoro-6-methoxy-4-(4-methyl-5-(4-(4-methylpiperazin-1-yl)phenyl)pyridin-3-yl)benzamide] | 103 | 108 | 92.7 | 83.1 | 83.5 | 102.29 | 98.06 | 96.6 | 98.7 | 97.31 |
| COc1cc(-c2cncc(-c3ccc(N4C[C@@H](C)N(C)[C@@H](C)C4)cc3)c2C)cc(F)c1C(N)=O [Compound 26c, 2-Fluoro-6-methoxy-4-(4-methyl-5-(4-((3R,5S)-3,4,5-trimethylpiperazin-1-yl)phenyl)pyridin-3-yl)benzamide] | 98.9 | 121 | 97 | 89.4 | 95 | 100.98 | 106.54 | 96.1 | 93.2 | 100.53 |
